From US12485187B2, “Method for improving retroviral transduction and gene editing in hematopoietic stem cells using clyclosporin H and UM171” (Ospedale San Raffaele S.R.L, priority 2017, dated 2025)

Columns and labels:
human HSPCs = assay: Colony-forming cell assay; assay type: cell-based
Protocol: Colony-forming cell assays were performed by plating 8×10^2 human HSPCs transduced in the presence of the different compounds in a methylcellulose-based medium (Methocult GF4434; Stem Cell Technologies). Fifteen days later colonies were scored by light microscopy for colony numbers and morphology. CFU-E and BFU-E were scored as erythroid colonies, while CFU-G, CFU-M and CFU-GM and CFU-GEMM were scored as myeloid colonies. Moreover, single colonies were plucked for molecular analysis.

human CD34+ HSPCs = settings: for effect on LV transduction of combining the compound with CsH: hCB- and mPB-derived HSPC, LV MOI 1 or 10
CB-derived CD34+ HSPCs = settings: Wang et al. 2014; cited from earlier work

Compound | colony-forming capacity (human HSPCs; mPB-CD34+ cells, IDUA-LV MOI 50, vs control) | effect on LV transduction of combining the compound with CsH (human CD34+ HSPCs) | colony-forming capacity (human HSPCs; BM-derived CD34+ cells transduced with IDUA or ARSA LV) | VCN in vitro (human CD34+ HSPCs; BM-derived CD34+ cells, single hit IDUA/ARSA-LV vs two-hit standard (MOI 100)) | transduction efficiency of clinical-grade IDUA and ARSA-LV (human CD34+ HSPCs; BM-derived CD34+ cells, single hit vs one-hit control without drugs) | LV integration site profile in human HSPCs (CB-derived CD34+ HSPCs)
CCCCC[C@H](O)/C=C/[C@H]1[C@H](O)CC(=O)[C@@H]1C/C=C\CCCC(=O)O [prostaglandin E2, Prostaglandin E2, reference compound] | No differences in colony-forming capacity | additive | – | – | – | –
CO[C@H]1C[C@@H]2CC[C@@H](C)[C@@](O)(O2)C(=O)C(=O)N2CCCC[C@H]2C(=O)O[C@H]([C@H](C)C[C@@H]2CC[C@@H](O)[C@H](OC)C2)CC(=O)[C@H](C)/C=C(\C)[C@@H](O)[C@@H](OC)C(=O)[C@H](C)C[C@H](C)/C=C/C=C/C=C/1C [rapamycin, Rapamycin, reference compound] | – | additive | no alterations in colony-forming capacity were observed | comparable to the two-hit gold standard | able to increase transduction efficiency | not to impact the LV integration site profile in human HSPCs
